Measurements as given in patent publication US12391679B2, “Benzamide-substituted bicyclic imidazo- and pyrazolo-fused -pyridine, -pyrimide, and -pyridazine compounds for treatment of inflammatory diseases” (ONCO3R Therapeutics BV, priority 2019, dated 2025).

The compounds below were run on LPS triggered IL-10 secretion in monocytes (assay: Monocytes assay: LPS-triggered IL-10 (ELISA)). Details: Homo sapiens, Monocyte, LPS-triggered IL-10 induction, median maximal fold change vs LPS only, read-out: IL-10 FCmax median.
Type: cell-based, human
How it was run: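 CD14+ monocytes bead-isolated from human PBMCs, pretreated with compound 1 h at 37 °C (0.2% DMSO), then stimulated with LPS 200 ng/mL for 4 h. Supernatant IL-10 measured by chemiluminescent sandwich ELISA; fold change versus LPS only per concentration, reported as maximal fold change (FCmax).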

Question: Which maximal fold induction does the source give for `COc1cc(-c2cnc3cc(C4(C#N)CCOC4)ccn23)cc(OC(F)F)c1C(=O)NC1CC1` (centres unmarked) [Cpd 123, 4-[7-(3-cyanotetrahydrofuran-3-yl)imidazo[1,2-a]pyridin-3-yl]-N-cyclopropyl-2-(difluoromethoxy)-6-methoxy-benzamide] here?
Answer: 1.5 to 4.5

Question: How did the maximal fold induction turn out when `COc1cc(-c2cnc3cc(C(C)(O)C(F)(F)F)ccn23)cc(OC(F)F)c1C(=O)NC1CC1` (centres unmarked) [Cpd 129, N-cyclopropyl-2-(difluoromethoxy)-6-methoxy-4-[7-(2,2,2-trifluoro-1-hydroxy-1-methyl-ethyl)imidazo[1,2-a]pyridin-3-yl]benzamide] was run?
Answer: 1.5 to 4.5

Question: Which maximal fold induction does the source give for `COc1cc(-c2cnc3cc(C4(C#N)COC4)ccn23)cc(OC(F)F)c1C(=O)N[C@@H]1C[C@@H]1F` [Cpd 130, 4-[7-(3-cyanooxetan-3-yl)imidazo[1,2-a]pyridin-3-yl]-2-(difluoromethoxy)-N-[(1R,2S)-2-fluorocyclopropyl]-6-methoxy-benzamide] here?
Answer: 1.5 to 4.5

Question: Which maximal fold induction does the source give for `COc1cc(-c2cnc3cc(C(F)(F)CO)ccn23)cc(OC(F)F)c1C(=O)NC1CC1` [Cpd 136, N-cyclopropyl-4-[7-(1,1-difluoro-2-hydroxy-ethyl)imidazo[1,2-a]pyridin-3-yl]-2-(difluoromethoxy)-6-methoxy-benzamide] here?
Answer: 1.5 to 4.5

Question: With `CCC(C)(O)c1ccn2c(-c3cc(OC)c(C(=O)NC4CC4)c(OC(F)F)c3)cnc2c1` (centres unmarked) [Cpd 137, N-cyclopropyl-2-(difluoromethoxy)-4-[7-(1-hydroxy-1-methyl-propyl)imidazo[1,2-a]pyridin-3-yl]-6-methoxy-benzamide] as the compound, how does the maximal fold induction read?
Answer: < 1.5

Question: Which maximal fold induction does the source give for `COc1cc(-c2cnc3cc(C(C)(C)CO)ccn23)cc(OC(F)F)c1C(=O)NC1CC1` [Cpd 150, N-cyclopropyl-2-(difluoromethoxy)-4-[7-(2-hydroxy-1,1-dimethyl-ethyl)imidazo[1,2-a]pyridin-3-yl]-6-methoxy-benzamide] here?
Answer: < 1.5

Question: Which maximal fold induction does the source give for `COc1cc(-c2cnc3cc(C4CCC4)c(F)cn23)cc(OC(F)F)c1C(=O)NC1CC1` [Cpd 168, 4-(7-cyclobutyl-6-fluoro-imidazo[1,2-a]pyridin-3-yl)-N-cyclopropyl-2-(difluoromethoxy)-6-methoxy-benzamide] here?
Answer: 1.5 to 4.5

Question: `COc1cc(-c2cnc3cc(C4(O)CCOCC4)ccn23)cc(OC(F)F)c1C(=O)NC1CC1` [Cpd 170, N-cyclopropyl-2-(difluoromethoxy)-4-[7-(4-hydroxytetrahydropyran-4-yl)imidazo[1,2-a]pyridin-3-yl]-6-methoxy-benzamide] was tested. Which maximal fold induction did it give?
Answer: 1.5 to 4.5

Question: Which maximal fold induction does the source give for `COc1cc(-c2cnc3cc(C4CCCN4C)ccn23)cc(OC(F)F)c1C(=O)NC1CC1` (centres unmarked) [Cpd 171, N-cyclopropyl-2-(difluoromethoxy)-6-methoxy-4-[7-(1-methylpyrrolidin-2-yl)imidazo[1,2-a]pyridin-3-yl]benzamide] here?
Answer: 1.5 to 4.5

Question: For `COc1cc(-c2cnc3cc(C(C)(C)C(C)O)ccn23)cc(OC(F)F)c1C(=O)NC1CC1` (centres unmarked) [Cpd 172, N-cyclopropyl-2-(difluoromethoxy)-4-[7-(2-hydroxy-1,1-dimethyl-propyl)imidazo[1,2-a]pyridin-3-yl]-6-methoxy-benzamide], which maximal fold induction is on record?
Answer: < 1.5

Question: How did the maximal fold induction turn out when `COc1cc(-c2cnc3cc(C4(O)CCC4)ccn23)cc(OC(F)F)c1C(=O)NC1CC1` [Cpd 173, N-cyclopropyl-2-(difluoromethoxy)-4-[7-(1-hydroxycyclobutyl)imidazo[1,2-a]pyridin-3-yl]-6-methoxy-benzamide] was run?
Answer: 1.5 to 4.5

Question: With `COc1cc(-c2cnc3cc(C4COC4)ccn23)cc(OC(F)F)c1C(=O)NC1CC1` [Cpd 174, N-cyclopropyl-2-(difluoromethoxy)-6-methoxy-4-[7-(oxetan-3-yl)imidazo[1,2-a]pyridin-3-yl]benzamide] as the compound, how does the maximal fold induction read?
Answer: 1.5 to 4.5

Question: How did the maximal fold induction turn out when `COc1cc(-c2cnc3cc(C(O)CC#N)ccn23)cc(OC(F)F)c1C(=O)NC1CC1` (centres unmarked) [Cpd 175, 4-[7-(2-cyano-1-hydroxy-ethyl)imidazo[1,2-a]pyridin-3-yl]-N-cyclopropyl-2-(difluoromethoxy)-6-methoxy-benzamide] was run?
Answer: 1.5 to 4.5

Question: With `COc1cc(-c2cnc3cc(C(C)(C#N)CO)ccn23)cc(OC(F)F)c1C(=O)NC1CC1` (centres unmarked) [Cpd 176, 4-[7-(1-cyano-2-hydroxy-1-methyl-ethyl)imidazo[1,2-a]pyridin-3-yl]-N-cyclopropyl-2-(difluoromethoxy)-6-methoxy-benzamide] as the compound, how does the maximal fold induction read?
Answer: 1.5 to 4.5

Question: Which maximal fold induction does the source give for `COCC(C)(C#N)c1ccn2c(-c3cc(OC)c(C(=O)NC4CC4)c(OC(F)F)c3)cnc2c1` (centres unmarked) [Cpd 195, 4-[7-(1-cyano-2-methoxy-1-methyl-ethyl)imidazo[1,2-a]pyridin-3-yl]-N-cyclopropyl-2-(difluoromethoxy)-6-methoxy-benzamide] here?
Answer: < 1.5

Question: How did the maximal fold induction turn out when `COc1cc(-c2cnc3cc(C4(O)CCC4)ccn23)cc(OC(F)F)c1C(=O)N[C@@H]1C[C@@H]1F` [Cpd 205, 2-(difluoromethoxy)-N-[(1R,2S)-2-fluorocyclopropyl]-4-[7-(1-hydroxycyclobutyl)imidazo[1,2-a]pyridin-3-yl]-6-methoxy-benzamide] was run?
Answer: 1.5 to 4.5

Question: With `COc1cc(-c2cnc3cc(C4COC4)ccn23)cc(OC(F)F)c1C(=O)N[C@@H]1C[C@@H]1F` [Cpd 206, 2-(difluoromethoxy)-N-[(1R,2S)-2-fluorocyclopropyl]-6-methoxy-4-[7-(oxetan-3-yl)imidazo[1,2-a]pyridin-3-yl]benzamide] as the compound, how does the maximal fold induction read?
Answer: 1.5 to 4.5

Question: For `COc1cc(-c2cnc3cc(C4(F)COC4)ccn23)cc(OC(F)F)c1C(=O)NC1CC1` [Cpd 207, N-cyclopropyl-2-(difluoromethoxy)-4-[7-(3-fluorooxetan-3-yl)imidazo[1,2-a]pyridin-3-yl]-6-methoxy-benzamide], which maximal fold induction is on record?
Answer: < 1.5

Question: For `COc1cc(-c2cnc3cc(C(C)(C)O)ccn23)cc(OC(F)F)c1C(=O)N[C@@H]1C[C@@H]1F` [Cpd 211, 2-(difluoromethoxy)-N-[(1R,2S)-2-fluorocyclopropyl]-4-[7-(1-hydroxy-1-methyl-ethyl)imidazo[1,2-a]pyridin-3-yl]-6-methoxy-benzamide], which maximal fold induction is on record?
Answer: 1.5 to 4.5

Question: With `COc1cc(-c2cnn3cc(C4COC4)ccc23)cc(OC(F)F)c1C(=O)NC1CC1` [Cpd 216, N-cyclopropyl-2-(difluoromethoxy)-6-methoxy-4-[6-(oxetan-3-yl)pyrazolo[1,5-a]pyridin-3-yl]benzamide] as the compound, how does the maximal fold induction read?
Answer: < 1.5

Question: How did the maximal fold induction turn out when `COc1cc(-c2cnn3cc(C4COC4)ccc23)cc(OC(F)F)c1C(=O)N[C@@H]1C[C@@H]1F` [Cpd 218, 2-(difluoromethoxy)-N-[(1R,2S)-2-fluorocyclopropyl]-6-methoxy-4-[6-(oxetan-3-yl)pyrazolo[1,5-a]pyridin-3-yl]benzamide] was run?
Answer: 1.5 to 4.5

Question: With `COc1cc(-c2cnn3cc(C(C)(C)C#N)ccc23)cc(OC(F)F)c1C(=O)N[C@@H]1C[C@@H]1F` [Cpd 219, 4-[6-(1-cyano-1-methyl-ethyl)pyrazolo[1,5-a]pyridin-3-yl]-2-(difluoromethoxy)-N-[(1R,2S)-2-fluorocyclopropyl]-6-methoxy-benzamide] as the compound, how does the maximal fold induction read?
Answer: < 1.5

Question: How did the maximal fold induction turn out when `COc1cc(-c2cnc3cc(C4(F)COC4)ccn23)cc(OC(F)F)c1C(=O)N[C@@H]1C[C@@H]1F` [Cpd 224, 2-(difluoromethoxy)-N-[(1R,2S)-2-fluorocyclopropyl]-4-[7-(3-fluorooxetan-3-yl)imidazo[1,2-a]pyridin-3-yl]-6-methoxy-benzamide] was run?
Answer: 1.5 to 4.5
